Measured values published in US7745572B2, “Peptides effective in the treatment of tumors and other conditions requiring the removal or destruction of cells” (Qualcomm Incorporated, priority 2001, dated 2010).

System: rat prostate
Test: Intraprostatic infusion in rats, prostate volume and histology at 72 hours
Assay type: in vivo, Sprague-Dawley rats
Conditions: 1 mg/mL in PBS pH 7.4 (1.0 mg/kg)
Description: Male Sprague-Dawley rats (300 gram weight range) were anesthetized with ether and given NTP[122] peptide #1 by intraprostatic infusion after open surgical visualization of the prostate. The injections consisted of 300 μl of NTP[122] peptide #1, 1 mg/mL in PBS pH 7.4. (1.0 mg/kg) (n=8), control injections of PBS alone (n=6), and controls with no injection (n=2). Rats were painlessly sacrificed after 72 hours. Prostate glands were dissected, fixed in 10%, buffered formalin for 24 hours, embedded in paraffin, sectioned, and stained with H & E. For each animal the entire prostate gland was embedded and sectioned. All stained sections were examined histologically and measured. For each prostate at least 4 histological sections were examined, and for each histological section two cross-sectional diameters (D) at 90° from each other were measured (total of ≧8 measurements per prostate). […]
Male Sprague-Dawley rats (300 gram weight range) were anesthetized with ether and given NTP[112] peptide #1 by intraprostatic infusion after open surgical visualization of the prostate. […] All stained sections were examined histologically and measured. For each prostate at least 4 histological sections were examined, and for each histological section two cross-sectional diameters (D) at 90° from each other were measured (total of ≧8 measurements per prostate). […]

Sequence	prostate histology (H & E)
IDQQVLSRIKLEIKRCL (listed as Homo sapiens) [NTP[122] peptide #1]	extensive loss of glandular epithelium, flattening and atrophy
MAQSRLTATSASRVQ (listed as Homo sapiens) [NTP[112] peptide #1]	significant cell loss and atrophy
